Assay results from publication PMC6274376, “Naturally Inspired Molecules as Multifunctional Agents for Alzheimer’s Disease Treatment” (Molecules, 2016).

Key:
[1] = target: hBACE-1 (Homo sapiens, UniProt P56817); assay: BACE-1 FRET inhibition assay; assay type: biochemical; conditions: FRET assay; average of multiple experiments each in triplicate, ± SEM
Method: The new benzophenone-based hybrids 3–7 presented in this study were first evaluated for their in vitro ability to inhibit the enzymatic activity of BACE-1, by means of a biochemical assay performed using the fluorescence resonance energy transfer (FRET) methodology and in comparison to inhibitor IV [22] as reference compound (Table 1). For the most interesting compounds 3–5, endowed with the orto-hydroxycarbonyl substitution pattern, the neuroprotective potential was determined as lack of toxic effects on neuronal cell viability and as Cu(II) chelating activity (Table 2); moreover, their direct interactions with Cu(II) ion were confirmed by a UV-vis spectrophotometric study.
Inhibition studies were performed using the following procedure: 5 μL of test compound (or DMSO) were pre-incubated with 175 μL of enzyme (10.37 nM, final concentration) in 20 mM NaOAc pH 4.5 containing CHAPS (0.1% w/v) for 1 h at r.t.; M-2420 (3 μM, final concentration) was then added and left to react for 15 min. The fluorescence signal was read at λem = 405 nm (λexc = 320 nm). DMSO concentration in the final mixture was maintained below 5% (v/v) to guarantee no significant loss of enzyme activity.Fluorescence intensities with and without inhibitor were compared and the percent inhibition due to the presence of test compounds was calculated. The background signal was measured in control wells containing all the reagents, except theenzymeand subtracted. The % inhibition due to the presence of increasing test compound concentration was calculated by the following expression: 100 − (IFi/IFo × 100) where IFi and IFo are the fluorescence intensities obtained for the enzyme in the presence and in the absence of inhibitor, respectively. Inhibition curves were obtained for each compound by plotting the % inhibition versus the logarithm of inhibitor concentration in the assay sample. The linear regression parameters were determined and the IC50 extrapolated (GraphPad Prism 4.0, GraphPad Software Inc., San Diego, CA, USA).

[2] = system: SH-SY5Y cells; assay: Inhibition of Cu(II)-mediated intracellular ROS formation (H2DCF-DA probe); assay type: cell-based, human; conditions: 5 and 10 µM compound, H2O2 (100 µM)/CuSO4 (25 µM), 30 min
Method: Our attention was then focused on the study of the intracellular antioxidant effect mediated by Cu(II) chelation. Therefore, compound 5 was selected to be studied in SH-SH5Y cells for its ability to counteract ROS formation elicited by Fenton reaction with CuSO4 (25 µM) and H2O2 (100 µM), and using 2′,7′-dichlorodihydrofluorescein diacetate (H2DCF-DA) as the fluorescent probe.
The intracellular antioxidant activity of the compounds was evaluated in SH-SY5Y cells as previously described with minor changes. Briefly, the SH-SY5Y cells were seeded in 96-well plates at 3 × 10^4 cells/well and incubated for 24 h at 37 °C in 5% CO2. […] The ROS formation was measured (excitation at 485 nm and emission at 535 nm) using a multilabel plate reader (VICTOR™ X3). The values are expressed as arbitrary fluorescence units (AUF).
Figure 2 Effect of compound 5 on ROS formation elicited by H2O2/CuSO4 in SH-SY5Y cells. […] At the end of the incubation, intracellular ROS formation was determined using a fluorescence probe, as described in the Materials and Methods section. The arbitrary units of fluorescence (AUF) values are shown as mean ± SD of at least three independent experiments (^### P < 0.001 versus untreated cells, *** P < 0.001 versus cells treated with H2O2/CuSO4, at ANOVA with Bonferroni’s Post Hoc Test).

[3] = UV-vis spectrophotometric evaluation of Cu(II) ion complexation; assay type: physicochemical
Source text: Chalcone conjugates 4 and 5 were investigated to evaluate their ability to complex Cu(II) ions via a UV-vis spectrophotometric study.
Therefore, we decided to carry on the spectrophotometric measurements in a mixed solvent: aqueous MOPS aqueous buffer […] pH 7.4 /DMF in 1:4 ratio, respectively. Flavonoids bearing the 4-carbonyl-5-hydroxyl chelation site have characteristic UV-vis spectra, characterized by a wide and non-structured band centred around 370–380 nm, with a molar extinction coefficient of 50,000 cm^−1·M^−1 that is attributed to HOMO-LUMO transition with a π-π* character.
All reagents and solvents were used as received (from Aldrich, St. Louis, MO, USA) without further purification: copper(II) sulphate hydrate (≥98%), 3-(N-Morpholino)propanesulfonic acid (MOPS, ≥99.5%), sodium hydroxide (≥98%), N,N-dimethylformamide (spectroscopic grade, DMF). A Milli-Q system (Millipore, Billerica, MA, USA) was used for the purification of water (resistivity ≥18.2 MΩ). MOPS bufferstock solution were obtained by a dissolution in Milli-Q water of 3-(N-morpholino)propane sulphonic acid to a final concentration of 10^−3 M. The pH was corrected with a solution of sodium hydroxide 1 N to a value of pH 7.4. Absorption spectra were recorded on a Perkin-Elmer Lambda 45 spectrophotometer at room temperature. Spectrophotometric titrations were performed as follows: stock solutions of ligands (ca. 10^−3 M) were prepared in DMF, diluted down to the desired concentration, in the quartz cuvette, in MOPS buffer 10^−3 M pH 7.4/DMF (1:4) to a final volume of 2.5 mL and then titrated by adding increasing amounts of Cu(II) (3.04 × 10^−3 Min DMF).

Sequence of hBACE-1 (P56817 46-501): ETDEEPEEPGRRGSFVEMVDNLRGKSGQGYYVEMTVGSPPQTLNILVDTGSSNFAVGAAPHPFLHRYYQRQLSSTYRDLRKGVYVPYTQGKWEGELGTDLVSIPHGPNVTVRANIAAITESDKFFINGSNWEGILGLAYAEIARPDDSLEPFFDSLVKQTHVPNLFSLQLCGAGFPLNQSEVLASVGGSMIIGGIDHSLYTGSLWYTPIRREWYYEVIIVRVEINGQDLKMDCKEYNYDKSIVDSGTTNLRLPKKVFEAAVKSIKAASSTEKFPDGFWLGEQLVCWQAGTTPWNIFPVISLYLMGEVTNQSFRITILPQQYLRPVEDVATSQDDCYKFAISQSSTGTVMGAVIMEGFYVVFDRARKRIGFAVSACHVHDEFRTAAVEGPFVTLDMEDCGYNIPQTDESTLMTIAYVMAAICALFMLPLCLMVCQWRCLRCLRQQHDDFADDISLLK

CN(Cc1ccccc1)Cc1ccc(C(=O)c2ccc(OCCOc3ccc(C(=O)/C=C/c4cccc5ccccc45)c(O)c3)cc2)cc1 [Compound 5, E-1-{4-[2-(4-4-Benzylmethylaminomethylbenzoylphenoxy)ethoxy]-2-hydroxyphenyl}-3-(naphthalen-1-yl)-prop-2-en-1-one]
IC50 [1]: 4.02 ± 0.29 µM
ROS formation evoked by H2O2/CuSO4 (arbitrary fluorescence units) [2]: significantly decreased
ability to complex Cu(II) ions ([3]; UV-vis spectra, MOPS buffer pH 7.4/DMF 1:4): able to chelate the selected ion
association constant (order of magnitude) ([3]; estimated from titration data, 1:1 complex stoichiometry with Cu(II), MOPS pH 7.4/DMF 1:4): ~10^4
